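Briefly, cells in 96-well plates were exposed to five compound concentrations for 48 h, and endpoints were estimated by linear interpolation. GI50 = concentration required for 50% inhibition of growth. Definition used: TGI = concentration required for complete inhibition of growth.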
Key:
Test in all cases: NCI anticancer screen, dose series, 48 h
M14 melanoma = tested on: M14 melanoma
HT29 colon = tested on: HT29 colon
OVCAR-5 ovarian = tested on: OVCAR-5 ovarian
RXF 393 renal = tested on: RXF 393 renal
UACC-62 melanoma = tested on: UACC-62 melanoma
KM12 colon = tested on: KM12 colon
OVCAR-8 ovarian = tested on: OVCAR-8 ovarian
DU-145 prostate = tested on: DU-145 prostate
U251 CNS = tested on: U251 CNS
NCI/ADR-RES ovarian = tested on: NCI/ADR-RES ovarian
SF-268 CNS = tested on: SF-268 CNS
HCT-116 colon = tested on: HCT-116 colon
MDA-MB-435 = tested on: MDA-MB-435
SR leukemia = tested on: SR leukemia
NCI-H23 lung = tested on: NCI-H23 lung
IGROV1 ovarian = tested on: IGROV1 ovarian
SK-MEL-28 melanoma = tested on: SK-MEL-28 melanoma
UO-31 renal = tested on: UO-31 renal
NCI-H522 lung = tested on: NCI-H522 lung
SK-MEL-2 melanoma = tested on: SK-MEL-2 melanoma
NCI-H460 lung = tested on: NCI-H460 lung
SN12C renal = tested on: SN12C renal
UACC-257 melanoma = tested on: UACC-257 melanoma
NCI-H226 lung = tested on: NCI-H226 lung
BT-549 breast = tested on: BT-549 breast
HL-60(TB) leukemia = tested on: HL-60(TB) leukemia

COc1ccc(C2=C(c3cn(C)c4ccccc34)C(=O)OC2)cc1OC
TGI (M14 melanoma): > 100 µM
GI50 (HT29 colon): 0.688 µM
TGI (HT29 colon): > 100 µM
GI50 (OVCAR-5 ovarian): 5.96 µM
TGI (OVCAR-5 ovarian): > 100 µM
GI50 (RXF 393 renal): 1.92 µM
TGI (RXF 393 renal): 6.11 µM
GI50 (UACC-62 melanoma): 1.28 µM
TGI (UACC-62 melanoma): > 100 µM
GI50 (KM12 colon): 1.45 µM
TGI (KM12 colon): > 100 µM
GI50 (OVCAR-8 ovarian): 4.69 µM
TGI (OVCAR-8 ovarian): > 100 µM
GI50 (DU-145 prostate): 3.13 µM
TGI (DU-145 prostate): > 100 µM
GI50 (U251 CNS): 2.64 µM
TGI (U251 CNS): > 100 µM
GI50 (NCI/ADR-RES ovarian): 0.87 µM
TGI (NCI/ADR-RES ovarian): > 100 µM
GI50 (SF-268 CNS): 16.8 µM
TGI (SF-268 CNS): > 100 µM
GI50 (HCT-116 colon): 1.16 µM
TGI (HCT-116 colon): > 100 µM
GI50 (MDA-MB-435): 0.265 µM
TGI (MDA-MB-435): 0.801 µM
GI50 (SR leukemia): 0.411 µM
TGI (SR leukemia): > 100 µM
GI50 (NCI-H23 lung): 4.04 µM
TGI (NCI-H23 lung): > 100 µM
GI50 (IGROV1 ovarian): 1.72 µM
TGI (IGROV1 ovarian): > 100 µM
GI50 (SK-MEL-28 melanoma): 9.87 µM
TGI (SK-MEL-28 melanoma): > 100 µM
GI50 (UO-31 renal): 1.93 µM
TGI (UO-31 renal): > 100 µM
GI50 (NCI-H522 lung): 1.19 µM
TGI (NCI-H522 lung): > 100 µM
GI50 (SK-MEL-2 melanoma): 4.34 µM
TGI (SK-MEL-2 melanoma): > 100 µM
GI50 (NCI-H460 lung): 2.21 µM
TGI (NCI-H460 lung): > 100 µM
GI50 (SN12C renal): 6.81 µM
TGI (SN12C renal): > 100 µM
GI50 (UACC-257 melanoma): > 100 µM
TGI (UACC-257 melanoma): > 100 µM
GI50 (NCI-H226 lung): 3.26 µM
TGI (NCI-H226 lung): > 100 µM
GI50 (BT-549 breast): 2.79 µM
TGI (BT-549 breast): > 100 µM
GI50 (HL-60(TB) leukemia): 1.42 µM
TGI (HL-60(TB) leukemia): 6.48 µM
